“And” between values parts separate entries of the source, which are not always exact repeats. Equal entries are not always repeated.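 Step 1: Grow cells in 96-well plates. Step 2: Expose to compound for 48 hours at 5 concentrations. Step 3: Interpolate endpoints linearly; if unreached, use highest concentration. GI50 = concentration required for 50% inhibition of growth. The concentration for full growth arrest is given as TGI.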
Legend:
Test in all cases: NCI tumour cell line growth inhibition, 48 h
A498 renal = tested on: A498 renal
NCI-H460 lung = tested on: NCI-H460 lung
NCI-H522 lung = tested on: NCI-H522 lung
UACC-62 melanoma = tested on: UACC-62 melanoma
HCT-116 colon = tested on: HCT-116 colon
UACC-257 melanoma = tested on: UACC-257 melanoma
SNB-19 CNS = tested on: SNB-19 CNS
SNB-75 CNS = tested on: SNB-75 CNS
SK-MEL-5 melanoma = tested on: SK-MEL-5 melanoma
SW-620 colon = tested on: SW-620 colon
MDA-N = tested on: MDA-N

SMILES | TGI (A498 renal) | TGI (NCI-H460 lung) | TGI (NCI-H522 lung) | TGI (UACC-62 melanoma) | TGI (HCT-116 colon) | TGI (UACC-257 melanoma) | TGI (SNB-19 CNS) | TGI (SNB-75 CNS) | GI50 (A498 renal) | TGI (SK-MEL-5 melanoma) | TGI (SW-620 colon) | GI50 (SNB-75 CNS) | GI50 (SK-MEL-5 melanoma) | GI50 (UACC-62 melanoma) | GI50 (UACC-257 melanoma) | TGI (MDA-N) | GI50 (NCI-H460 lung) | GI50 (HCT-116 colon) | GI50 (SW-620 colon)
O=S(O)CCCSSSCCCS(=O)O | > 100 µM | > 100 µM | > 100 µM | > 100 µM | > 100 µM | > 100 µM | > 100 µM | > 100 µM |  |  |  |  |  |  |  |  |  |  | 
CN(C)c1cccc(OC(=O)NCCCl)c1 | 93.6 µM and > 100 µM | > 100 µM | > 100 µM | > 100 µM | > 100 µM | > 100 µM | > 100 µM | > 100 µM | 13.9 µM | > 100 µM | > 100 µM | > 100 µM |  |  |  |  |  |  | 
c1csc(-c2ccc(CNc3c4ccccc4nc4ccccc34)cc2)c1 | 2.52 µM |  |  | 27 µM |  | 4.06 µM |  | 6.58 µM | 1.22 µM | 3.01 µM |  | 2.24 µM | 1.63 µM | 6.74 µM | 2 µM |  |  |  | 
COC(=O)c1sc2c(c1C(=O)OC)C(=NC(C)(C)C)SC2=NC(C)(C)C | 32.5 µM | 34.9 µM | 37.5 µM | 33.2 µM | 30.5 µM | 32.6 µM | 35.8 µM |  |  | 29.5 µM | 35.4 µM |  |  |  |  | 34 µM |  |  | 
c1ccc2c(c1)SCCc1cn[nH]c1-2 | > 100 µM | > 100 µM | > 100 µM | > 100 µM | > 100 µM | > 100 µM | > 100 µM | > 100 µM |  | > 100 µM | > 100 µM |  |  |  |  |  |  |  | 
Nc1ccc(Cn2ccc3c4c(N)nc(N)nc4ccc32)cc1 |  | 5.58 µM | 3.72 µM | 1.5 µM | 1.5 µM | 8.02 µM | 17.6 µM | 12.5 µM |  | 8.24 µM | 2.27 µM |  |  |  |  | 14.2 µM |  |  | 
N#C/C(=C\c1ccc([N+](=O)[O-])o1)c1n[nH]c(Cc2ccccc2)n1 | 14.6 µM | 12.2 µM | 1.57 µM | 3.55 µM | 0.668 µM | 4.26 µM | 17.3 µM | 6.75 µM |  | 2.51 µM | > 100 µM |  |  |  |  | 4.52 µM |  |  | 
COCCNCc1ccc(-c2cc3nccc(Oc4ccc(NC(=O)C5(C(=O)Nc6ccc(F)cc6)CC5)cc4F)c3s2)nc1 |  | 3.4 µM |  | 4.66 µM | 3.92 µM | 3.33 µM |  | 2.26 µM |  |  | 3.27 µM | 1.03 µM |  | 1.89 µM | 1.59 µM |  | 1.66 µM | 1.78 µM | 1.26 µM
S=c1[nH]n2c(COc3ccc(Cl)cc3)nnc2s1 |  | > 100 µM | > 100 µM | > 100 µM | > 100 µM | > 100 µM | > 100 µM | > 100 µM |  | > 100 µM | > 100 µM |  |  |  |  |  |  |  | 
O=C1C(c2c(O)[nH]c3ccc(Cl)cc23)=Nc2ccccc21 | 13.1 µM | > 100 µM | > 100 µM | > 91.3 µM | 5.18 µM | > 100 µM | > 81.4 µM | 15.5 µM |  | 17.7 µM | > 100 µM |  |  |  |  | > 100 µM |  |  | 
NNC(=O)CCc1ccc2ccc3ccccc3c2c1 | > 100 µM | > 100 µM | > 100 µM | > 100 µM | > 100 µM | > 100 µM | > 100 µM |  |  | > 100 µM | > 100 µM |  |  |  |  | > 100 µM |  |  | 
Cc1cccc2c1Sc1ccccc1C2NC(=O)CN(C)C (configuration not stated) |  | > 100 µM |  | > 100 µM | > 100 µM | > 100 µM | > 100 µM | 86.7 µM |  | > 100 µM | > 100 µM |  |  |  |  |  |  |  | 
CSCC(CO)NC(=O)/C=C/c1c(C)[nH]c(=O)[nH]c1=O (configuration not stated) | > 875 µM | > 875 µM | 499 µM | > 875 µM | > 875 µM | > 875 µM | > 875 µM | > 875 µM |  | > 875 µM | > 492 µM |  |  |  |  |  |  |  | 
Cc1ccc(C(C)C)c(OCC(=O)N/N=C/c2c[nH]c3ccc(Br)cc23)c1 | 15.5 µM | 6.4 µM | 8.17 µM | 8.92 µM | 11 µM | 15.9 µM | 9.59 µM | 5.95 µM |  | 4.43 µM | 18.6 µM |  |  |  |  | 2.94 µM |  |  | 
NNC(=O)c1cc([N+](=O)[O-])ccc1NC(=O)C12CC3CC(CC(C3)C1)C2 |  | 62.8 µM | 15.1 µM | 28 µM | > 100 µM | 59.3 µM | 21.4 µM |  |  | > 100 µM | > 100 µM |  |  |  |  | > 100 µM |  |  | 
Clc1cc(OCc2nn3c(Cc4ccccc4)nnc3s2)c(Cl)cc1OCc1nn2c(Cc3ccccc3)nnc2s1 | 88.5 µM | > 100 µM | > 100 µM | > 100 µM | > 100 µM | > 100 µM | 95.8 µM | 9.97 µM |  | > 100 µM | > 100 µM |  |  |  |  | > 100 µM |  |  | 
O=C(Sc1n[nH]c(=O)[nH]c1=O)c1cccc2nc3ccccc3nc12 | > 100 µM | > 100 µM |  | > 100 µM | > 100 µM | 39 µM | > 100 µM |  |  | 14.5 µM | > 100 µM |  |  |  |  | 28.6 µM |  |  | 
CO/C=C1\OC(=O)C=C1OC | > 100 µM | > 100 µM | > 100 µM | > 100 µM | > 100 µM | > 100 µM | > 100 µM | > 100 µM |  | > 100 µM | > 100 µM |  |  |  |  |  |  |  | 
CN(c1ccccc1)c1nc(=[N+]2CCCC2)ss1 | > 100 µM | > 100 µM |  | > 100 µM | > 100 µM | > 100 µM | > 100 µM | > 100 µM |  | > 100 µM | > 100 µM |  |  |  |  |  |  |  | 
CC(=O)OC1CC(OC2C(O)CC(OC3C(O)CC(OC4CCC5(C)C(CCC6C5CCC5(C)C(C7=CC(=O)OC7)CCC65O)C4)OC3C)OC2C)OC(C)C1OC1OC(CO)C(O)C(O)C1O (configuration not stated) | 0.131 µM | 0.0245 µM | 0.0291 µM | 0.334 µM | 0.0472 µM | 0.422 µM | 0.348 µM | 0.249 µM |  | 0.107 µM | 0.148 µM |  |  |  |  | 0.152 µM |  |  | 
CC1(C)N=C(c2ccccc2)SC12S[C@@H]1CCCC[C@H]1S2 | 33.9 µM | > 100 µM | > 100 µM | > 100 µM | > 100 µM | > 100 µM | 32.1 µM | > 100 µM |  | 54.5 µM | > 100 µM |  |  |  |  | 93.5 µM |  |  | 
COc1cc(NCCC(=O)O)c2ncccc2c1 | > 100 µM | > 100 µM | > 100 µM | > 100 µM | > 100 µM | > 100 µM | > 100 µM |  |  | > 100 µM | > 100 µM |  |  |  |  | > 100 µM |  |  | 

Source: PubChem BioAssay (NCI)
